Experimental data reported in patent US12509482B2, “3′-ketoglycoside compound for the slow release of a volatile alcohol” (GLYCOSCIENCE, S.L., priority 2020, dated 2025).
Like-named read-outs stand apart in the source and are kept apart here. Values belong to the compound of their own block, whether it stands above or below them.

Assays:
Format in all cases: physicochemical
[1] = Example 21: release of methanol from substrate A (methyl-O-α-D-3′-ketoglucopyranoside) vs substrate B (methyl-O-α-D-glucopyranoside), 0.1 M phosphate buffer or water, room temperature then 37° C.
Experimental: In this example, methyl-O-α-D-3′-ketoglucopyranoside and methyl-O-α-D-glucopyranoside were used as model compounds to determine the rate of release of an aliphatic alcohol (methanol) under different conditions.
1 M Stock solutions of sodium dihydrogen phosphate and disodium hydrogen phosphate were prepared in deuterated water (D2O). Stock solutions of 15 mg of methyl-O-α-D-3′-ketoglucopyranoside (substrate A) and methyl-O-α-D-glucopyranoside (substrate B) were each prepared by dissolving in 0.3 mL of D6-DMSO.
Solutions of pH 4.5, 5.8 and 7.4 were prepared by dilution of the appropriate individual or mixture of stock phosphate salt solutions to 0.1 M using a calibrated pH meter.
To eight parallel reaction vials was added 0.05 mL of one of the glycoside substrate solutions in D6-DMSO, 0.5 mL of the appropriate deuterated buffer solution or 0.5 mL of water were indicated in the table below and the mixtures analysed by ^1H-NMR with 128 scans using a 400 MHz instrument to give an initial time reading.
The mixtures were then analysed in the same way after allowing to stand at room temperature for a further 22 h.
The mixtures were then incubated by shaking at 37° C. for a further 44 h and analysed in the same way.

[2] = Example 30: competitive release of alcohol from substrate stock solutions A-D (methyl-O-α-D-3′-ketoglucopyranoside, methyl-O-α-D-glucopyranoside, phenyl-O-β-D-3′-ketoglucopyranoside, phenyl-O-β-D-glucopyranoside, each with 4-nitrophenyl-O-β-D-glucopyranoside), 0.1 M phosphate buffer, 37° C., presence and absence of fresh skin wash; conditions: for alcohol release (in words): 37° C.
Text: In this example, phenyl-O-β-D-3′-ketoglucopyranoside, methyl-O-α-D-3′-ketoglucopyranoside, phenyl-O-β-D-glucopyranoside, methyl-O-α-D-glucopyranoside and 4-nitrophenyl-O-β-D-glucopyranoside were used as model compounds to determine the rate of release of their respective alcohol rests under different conditions.
The competitive rate of release of methanol or phenol and 4-nitrophenol from a 1:1 stoichiometric mixture of (2R,5S,6S)-3,5-dihydroxy-2-(hydroxymethyl)-6-phenoxytetrahydro-4H-pyran-4-one (phenyl-O-β-D-3′-ketoglucopyranoside) or (2R,3R,5S,6S)-3,5-dihydroxy-2-(hydroxymethyl)-6-methoxytetrahydro-4H-pyran-4-one (methyl-O-α-D-3′ketoglucopyranoside) and their respective 0-glucopyranosides against (2R,3S,4S,5R,6S)-2-(hydroxymethyl)-6-(4-nitrophenoxy)tetrahydro-2H-pyran-3,4,5-triol (4-nitrophenyl-O-β-D-glucopyranoside) in 0.1 M deuterated phosphate buffer solutions at pH 5.7 and 7.0 containing 10% D6-DMSO at room temperature in the presence and absence of fresh skin washing solution was determined.
1 M Stock solutions of sodium dihydrogen phosphate and disodium hydrogen phosphate were prepared in deuterated water (D2O).
4-Nitrophenyl-O-β-D-glucopyranoside (50 mg) was dissolved in D6-DMSO (1 mL) and 0.2 mL of the resultant solution added to each of 10 mg of methyl-O-α-D-3′-ketoglucopyranoside, methyl-O-α-D-glucopyranoside, phenyl-O-β-D-3′-ketoglucopyranoside and phenyl-O-β-D-glucopyranoside to give substrate stock solutions A, B, C and D respectively.
In a typical experiment, a stock solution of fresh skin wash suspension was prepared by swabbing a 25 cm^2 area of cheek skin of a human volunteer by robustly rubbing the area with a cotton wool gauze (5×5 cm^2) soaked in D2O (12.5 mL) for 1 minute and then resuspending the gauze in the D2O solution, rapidly shaking and removing the gauze after squeezing out as much liquid as possible with a spatula.
1 M Stock solutions of phosphate buffer, pH 5.7 and 7.0 were prepared by appropriately mixing 1 M stock phosphate salts solutions to the correct pH as determined using a calibrated pH meter.
Half of each buffer stock solution was diluted ten times with D2O and the other with the above skin washing stock solution to give a 0.1 M phosphate buffer in D2O with a final pH of 5.7, 0.1 M phosphate buffer in D2O with a final pH of 7.0, a 0.1 M phosphate buffer in skin wash solution with a final pH of 5.7 and a 0.1 M phosphate buffer in skin wash solution with a final pH of 7.0.
To sixteen parallel reaction vials, was added 0.45 mL of low or high pH 0.1M phosphate buffer in D2O or 0.45 mL of low or high pH 0.1M phosphate buffer in skin wash solution followed by 0.05 mL of one of the glycoside substrate solutions in D6-DMSO and the mixtures incubated by shaking at 37° C. After times indicated in the table below, the mixtures where analysed by ^1H-NMR with 128 scans using a 400 MHz instrument and the colour observed visually, with the results shown in Table XVII: […]

[3] = Description: alcohol release from model compounds (III), (IV) and compound (V) in buffer, water and skin washings; conditions: for phenol release (in words): after 60 h
[4] = Example 13: release of 4-nitrophenol from substrate A (4-nitrophenyl-O-β-D-3′-ketoglucopyranoside) vs substrate B (4-nitrophenyl-O-β-D-glucopyranoside), 0.1 M deuterated phosphate buffer or water, 10% D6-DMSO, room temperature; conditions: varying solution pH; room temperature; 0.5 mL of aqueous solution
Experimental: In this example, 4-nitrophenyl-O-β-D-3′-ketoglucopyranoside and 4-nitrophenyl-O-beta-D-glucopyranoside were used as model compounds to determine the rate of release of an aromatic alcohol (4-nitrophenol) under different conditions.
Rate of release of 4-nitrophenol from (2R,3R,5S,6S)-3,5-dihydroxy-2-(hydroxymethyl)-6-(4-nitrophenoxy)tetrahydro-4H-pyran-4-one (4-nitrophenyl-O-β-D-3′-ketoglucopyranoside) was determined in comparison to (2R,3S,4S,5R,6S)-2-(hydroxymethyl)-6-(4-nitrophenoxy)tetrahydro-2H-pyran-3,4,5-triol (para-nitrophenyl-O-β-D-glucopyranoside) in 0.1 M deuterated phosphate buffer solutions of differing pH containing 10% D6-DMSO or in water containing 10% D6-DMSO at room temperature.
1 M Stock solutions of sodium dihydrogen phosphate and disodium hydrogen phosphate were prepared in deuterated water (D2O). Stock solutions of 25 mg of 4-nitrophenyl-O-β-D-3′-ketoglucopyranoside (substrate A), 25 mg of 4-nitrophenyl-O-β-D-glucopyranoside (substrate B) in 0.5 mL of D6-DMSO were each prepared and a stock solution of 11 mg of 4-nitrophenol in the same volume of D6-DMSO for visual comparison.
Solutions of pH 4.5, 5.8, 7.4 and 9.5 were prepared by dilution of the appropriate individual or mixture of stock phosphate salt solutions to 0.1 M using a calibrated pH meter.
To ten parallel reaction vials was added 0.05 mL of one of the glycoside substrate stock solutions in D6-DMSO, 0.5 mL of the appropriate deuterated buffer solution or 0.5 mL of water were indicated in Table I below. The reaction vials were allowed to stand at room temperature and the colour of the solutions recorded by visual observation relative to the colour of authentic 4-nitrophenol solutions diluted in the same way, as shown in Table I:
After approximately 26 h, reactions 2 to 5 were all analysed by ^1H-NM R using 128 scans on a 400 MHz instrument.

[5] = pH 5.7, presence and absence of skin washing

Compound: CO[C@H]1O[C@H](CO)[C@@H](O)[C@H](O)[C@H]1O [methyl-O-α-D-glucopyranoside]
- stability / methanol release (in words) [1]: remains stable over the pH range tested and in water
- stability (in words) ([2]; all conditions tested (pH 5.7 and 7.0, with and without skin washing, 37° C.)): stable under all conditions tested

Compound: O=C1[C@@H](O)[C@H](Oc2ccccc2)O[C@H](CO)[C@H]1O [phenyl-O-β-D-3′-ketoglucopyranoside, (2R,5S,6S)-3,5-dihydroxy-2-(hydroxymethyl)-6-phenoxytetrahydro-4H-pyran-4-one]
- alcohol release (in words) [2, 5]: reacts slower than at pH 7 and to the same extent in the presence and absence of skin washing
- phenol release (in words) ([3]; buffer alone): a small quantity of conjugate remained
- phenol release (in words) ([3]; in the presence of skin washing): complete release of phenol

Compound: CO[C@H]1O[C@H](CO)[C@@H](O)C(=O)[C@H]1O [methyl-O-α-D-3′-ketoglucopyranoside, (2R,3R,5S,6S)-3,5-dihydroxy-2-(hydroxymethyl)-6-methoxytetrahydro-4H-pyran-4-one]
- stability / methanol release (in words) ([1]; 37° C., pH range tested and water): stable at pH 4.5 and 5.8, but very slowly generates methanol at pH 7.4
- alcohol release (in words) [2, 5]: no reaction is observed
- methanol release (in words) ([3]; 0.1M sodium phosphate buffer in D2O, pH 7.0, 37° C., after 36 h): slowly liberates methanol
- stability (in words) ([3]; deionised water, acidic pH): remained stable in deionised water and relatively stable at acidic pH
- methanol release in the presence of skin washings (in words) ([3]; same temperature and pH (37° C., pH 7.0)): significantly more methanol than had been observed in buffer alone

More lines, main results first:

- 4-nitrophenol release (in words) [4]: releases virtually no 4-nitrophenol
Compound: O=[N+]([O-])c1ccc(O[C@@H]2O[C@H](CO)[C@@H](O)[C@H](O)[C@H]2O)cc1 [4-nitrophenyl-O-β-D-glucopyranoside, (2R,3S,4S,5R,6S)-2-(hydroxymethyl)-6-(4-nitrophenoxy)tetrahydro-2H-pyran-3,4,5-triol]
- alcohol release (in words) ([2]; pH 7, presence and absence of skin washings): release some 4-nitrophenol visually at pH 7 and typically to a greater extent in the presence of skin washings, but to such a low extent that no change was observed by NMR

- stability (in words) ([2]; pH 5.7): stable under all conditions tested
Compound: OC[C@H]1O[C@@H](Oc2ccccc2)[C@H](O)[C@@H](O)[C@@H]1O [phenyl-O-β-D-glucopyranoside]
